# “Also recorded” adds a separate entry of the source.
# Experiments:
# monolayer C3A cells [1] = assay: Monolayer C3A cells incubated with inflammatory cytokines (IL-6, IL-1β, TNF-α); secreted factors assayed in conditioned media by ELISA/multiplex; type: cell-based, human; conditions: for AAT secretion at 54 h: 54 h compared with 24 h; for TNF-α secretion: 24 and 48 h; for IL-10 secretion / IL-10 secretion at 48 hr: 10 ng/mL; for IL-10 secretion: 24 h vs controls; for IL-10 secretion at 48 hr: 48 hr compared with 24 h
# Experimental: (§1) Conditioned media from C3A cells of an active cartridge of a treatment system of the disclosure were assayed for APP, cytokines, and other mediators that affect inflammation using singleplex ELISA kits (R&D Systems, abcam), chemiluminescent multiplex array kits (Aushon) and/or contracted services (Myriad Rules Based Medicine). Inflammatory cytokines reported to be present in hepatitis patient serum (IL-6 [0, 1, 10, 100 ng/mL]±IL-1β [0, 1, 10, 100 ng/mL]) were incubated with monolayer, or C3A cells recovered from the treatment system, for 24 or 54 h, and conditioned media were assayed for the APP IL-1 receptor antagonist (IL-1Ra), alpha-1-antitrypsin (AAT), and albumin. Lipopolysaccharide (LPS) (0, 0.01, 0.1, 1, 10 EU/mL) was incubated with monolayer C3A cells for 24 h and assayed for APP.
# Conditioned media from active cartridges including qualified C3A cells were assayed for APP, cytokines, and other mediators that affect inflammation. Inflammatory cytokines present in patient serum (IL-6±IL-1β) were incubated with monolayer, or C3A cells recovered from the system, for 24 or 54 h and media assayed for IL-1 receptor antagonist (IL-1Ra) and alpha-1-antitrypsin (AAT).
# (§2) C3A cells of the invention were plated in monolayer and incubated with LPS or with inflammatory cytokines (IL-6, IL-1β, and/or TNF-α) for 24, 48, or 54 h. Cytokines were dosed individually or in combination at 0, 1, 10, or 100 ng/mL as indicated in each figure. Separate C3A cells were incubated with LPS at 0, 0.01, 0.1, 1, or 10 EU/mL for 24 h.
# (§3) Additionally, intact C3A tissue (C3A cells cultured three-dimensionally between polysulfone hollow fibers) was excised from C3A cell cartridges and dosed in conjunction with 10 ng/mL IL-1β and 10 ng/mL IL-6 for 24 h. The supernatants from these monolayer C3A cell and ELAD C3A tissue experiments were assayed for IL-1Ra, AAT, IL-10, or albumin via in-house and commercial ELISA kits (R&D Systems, abcam), contracted services for multiplex ELISAs (Myriad), or chemiluminescent multiplex assay kits (Aushon).
# monolayer C3A cells [2] = assay: Monolayer C3A cells incubated with LPS for 24 h; IL-1Ra and AAT assayed in media; type: cell-based, human
# Experimental: as §1, §2, §3
# [3] = FIG. 18 experiment, monolayer C3A cells 2.6×10^5 cells/cm^2, TNF-α 1, 10 or 100 ng/mL, IL-1β 10 ng/mL
# [4] = Example 1, monolayer C3A cultures
# [5] = Example 3, monolayer C3A cells 1.3×10^5 cells/cm, 24 and 54 h, n=3
# [6] = Example 3, monolayer C3A cells 1.3×10^5 cells/cm^2
# [7] = Example 3, monolayer, 24, 48 hr
# [8] = Example 3, monolayer, 24 hr, 48 hr
# [9] = Examples 1-2, monolayer C3A cells, 24 h, single replicates of pooled triplicate wells
# [10] = Examples 1-2, monolayer C3A cells
# [11] = monolayer C3A cells 2.6×10^5 cells/cm^2
# [12] = monolayer C3A cells, IL-6 ± IL-1β 1-100 ng/mL, 24 h (or time not stated)
substance,measurement,setting,value
TNF-α,IL-1Ra secretion at the highest dose,"monolayer C3A cells [1]; FIG. 18 experiment, TNF-α 100 ng/mL",observed decrease
same,IL-1Ra secretion,monolayer C3A cells [1]; [3],did not increase; also recorded: not TNF-α alone
same,APP expression,"monolayer C3A cells [1]; TNF-α, except when dosed 10,000-fold higher than measured in culture",did not significantly impact
Interleukin-6 [IL-6],IL-10 increase,monolayer C3A cells [1]; [4],10 fold
same,IL-18 increase,monolayer C3A cells [1]; [4],9 fold
same,MCP-1 increase,monolayer C3A cells [1]; [4],15 fold
same,TNF-β increase,monolayer C3A cells [1]; [4],12 fold
same,fibrinogen increase,monolayer C3A cells [1]; [4],6 fold
same,AAT secretion,monolayer C3A cells [1]; [5],no apparent effect; also recorded: not affected
same,fibrinogen secretion,monolayer C3A cells [1]; [6],increased
same,α-2 macroglobulin secretion,monolayer C3A cells [1]; [6],increased; also recorded: modestly upreguated
same,Fibrinogen increase vs. control,monolayer C3A cells [1]; [7],~6 fold
same,IL-18 increase vs. control,monolayer C3A cells [1]; [7],~9 fold
same,Monocyte chemotactic protein 1 (MCP-1) increase vs. control,monolayer C3A cells [1]; [7],~15 fold
same,TNF-β increase vs. control,monolayer C3A cells [1]; [7],~12 fold
same,Granulocyte-colony stimulating factor (G-CSF) increase vs. control,"monolayer C3A cells [1]; Example 3, monolayer, 24 hr",~50 fold
same,IL-7 increase vs. control,"monolayer C3A cells [1]; Example 3, monolayer, 24 hr",~10 fold
same,IL-10 increase vs. control,"monolayer C3A cells [1]; Example 3, monolayer, 24 hr",~10 fold
same,IL-8 increase vs. control,monolayer C3A cells [1]; [8],"~2,000 fold"
same,Stem cell factor (SCF) increase vs. control,monolayer C3A cells [1]; [8],~100 fold
same,TNFα increase vs. control,monolayer C3A cells [1]; [8],~25 fold
same,Granulocyte-colony stimulating factor (G-CSF) increase vs. control,"monolayer C3A cells [1]; Example 3, monolayer, 48 hr",~75 fold
same,IL-7 increase vs. control,"monolayer C3A cells [1]; Example 3, monolayer, 48 hr",~14 fold
same,Granulocyte-colony stimulating factor (G-CSF) increase with IL-6 vs. control,"monolayer C3A cells [1]; Example 3, monolayer, 24 hr",~300 fold
same,Granulocyte-colony stimulating factor (G-CSF) increase with IL-6 vs. control,"monolayer C3A cells [1]; Example 3, monolayer, 48 hr",~500 fold
same,AAT secretion,monolayer C3A cells [1]; [9],dose-dependent upregulation; also recorded: upregulated; also recorded: dose-dependent up-regulation
same,AAT secretion at 54 h,monolayer C3A cells [1]; [10],further increased; also recorded: increases with exposure time
same,TNF-α secretion,monolayer C3A cells [1]; [11],"upregulated; also recorded: low, yet elevated"
same,IL-10 secretion,monolayer C3A cells [1]; monolayer C3A cells,increased above the controls; also recorded: upregulated
same,IL-10 secretion at 48 hr,monolayer C3A cells [1]; monolayer C3A cells,further increased
same,IL-1Ra secretion,monolayer C3A cells [1]; [12],did not increase
Interleukin-1 beta [IL-1β],G-CSF increase,monolayer C3A cells [1]; [4],50 fold
same,IL-8 increase,monolayer C3A cells [1]; [4],"2,000 fold"
same,SCF increase,monolayer C3A cells [1]; [4],100 fold
same,TNFα increase,monolayer C3A cells [1]; [4],25 fold
same,AAT secretion,monolayer C3A cells [1]; [5],no apparent effect; also recorded: not affected
same,IL-6-induced fibrinogen expression on addition of IL-1β,"monolayer C3A cells [1]; Example 3, monolayer C3A cells, IL-1β added to IL-6",abrogated
same,AAT secretion,monolayer C3A cells [1]; [9],dose-dependent upregulation; also recorded: upregulated
same,AAT secretion,"monolayer C3A cells [1]; Examples 1-2, monolayer C3A cells, 24 h, single replicates of pooled triplicate wells, listed as IL-1 β",dose-dependent up-regulation
same,AAT secretion at 54 h,monolayer C3A cells [1]; [10],further increased; also recorded: increases with exposure time
same,AAT secretion at 54 h,"monolayer C3A cells [1]; Examples 1-2, monolayer C3A cells, listed as IL-1 β",further increased
same,IL-1Ra secretion,monolayer C3A cells [1]; [3],increased; also recorded: upregulated
same,TNF-α secretion,monolayer C3A cells [1]; [11],"upregulated; also recorded: low, yet elevated"
same,IL-10 secretion,monolayer C3A cells [1]; monolayer C3A cells,increased above the controls; also recorded: upregulated
same,IL-10 secretion at 48 hr,monolayer C3A cells [1]; monolayer C3A cells,further increased
same,IL-1Ra secretion,monolayer C3A cells [1]; [12],did not increase
lipopolysaccharide [LPS],IL-1Ra secretion,"monolayer C3A cells [2]; LPS 0.01, 0.1, 1, 10 EU/mL",increased; also recorded: upregulated
same,AAT levels,"monolayer C3A cells [2]; LPS 0.01-10 EU/mL, higher concentrations = 1 and 10 EU/mL",upregulated; also recorded: increased only at higher concentrations
same,IL-1Ra secretion increase,"monolayer C3A cells [2]; LPS at all concentrations evaluated (0.01, 0.1, 1, and 10 EU/mL)",approximately 2 fold
